This note sets out measurements from the NIST ThermoML archive (doi:10.1016/j.jct.2015.08.008).

Numbers after ± are expanded uncertainties.

A short description of this data set: molar enthalpy of vaporization or sublimation. As to conditions: 298.15 K; Crystal; Static calorimetry.

In the case of `N#CCC(=O)c1ccccc1` [3-oxo-3-phenylpropanenitrile], the molar enthalpy stood at 23.5 ± 0.502 kcal/mol.
To `CC(=O)c1cccc(C#N)c1` [3-acetylbenzonitrile] belongs 22.6 ± 0.359 kcal/mol.
